Patent US20030059421A1, “DNA encoding the baboon and cynomolgus macaque prostoglandin E2 receptor EP4 subtype” (Pfizer Inc., priority 2001, published 2003)

How the values were obtained:
[1] = target: T1, cynomolgus macaque prostaglandin receptor EP4 (cynEP4) (Macaca fascicularis, UniProt Q95J39); assay: cAMP accumulation (SPA) in CHO cells transiently transfected with cynomolgus macaque EP4; format: cell-based; conditions: 12 minutes treatment, IBMX present
Experimental: (§1) FIG. 7 provides characterization of secondary signaling in CHO cells expressing cynomolgus macaque prostaglandin receptor EP4. An SPA assay was performed on CHO cells transiently transfected with cynEP4 following treatment for 12 minutes with either (▪) PGE2 or the EP4 specific ligand (●) EP4SL. Error bars represent one standard deviation.
(§2) Secondary signaling in CHO cells expressing baEP4 or cynEP4 was measured by cAMP accumulation. CHO cells transiently transfected with baEP4 or cynEP4 were treated for 12 minutes with various concentrations of PGE2 in the presence of 2 mM IBMX. Accumulation of intracellular cAMP was measured at the end of the treatment period by use of a commercially available scintillation proximity assay (SPA) kit (Amersham, Arlington Heights, Ill.).
(§3) The day prior to transfection, CHO—K1 cells were plated in 100 mm dishes (Corning, Corning, N.Y.) at 6×10^4 cells/cm^2 in DMEM/F12 (Life Technologies) supplemented with 10% fetal calf serum (FCS; Gemini Bio-Products, Calabasas, Calif.). […]
(§4) To measure stimulation of cAMP production, CHO cells transiently transfected with the baboon EP4 or cynomolgus macaque EP4 receptor were plated at 20,000 cells/well in poly-D lysine coated 96-well tissue-culture plates (Becton-Dickinson, Franklin Lakes, N.J.) and allowed to grow for 72 hours. […] Assay plates were then counted in a Wallac Trilux counter (Perkin Elmer, Boston, Mass.).

parental CHO—K1 cells = assay: cAMP levels in parental CHO-K1 cells; format: cell-based, Chinese hamster; conditions: parental (untransfected) CHO-K1 cells
[2] = target: T2, baboon prostaglandin receptor EP4 (baEP4) (Papio cynocephalus, UniProt Q7JGJ7); assay: cAMP accumulation (SPA) in CHO cells transiently transfected with baboon EP4; format: cell-based; conditions: 12 minutes treatment, IBMX present
T2 sequence (Q7JGJ7 entry or part of it): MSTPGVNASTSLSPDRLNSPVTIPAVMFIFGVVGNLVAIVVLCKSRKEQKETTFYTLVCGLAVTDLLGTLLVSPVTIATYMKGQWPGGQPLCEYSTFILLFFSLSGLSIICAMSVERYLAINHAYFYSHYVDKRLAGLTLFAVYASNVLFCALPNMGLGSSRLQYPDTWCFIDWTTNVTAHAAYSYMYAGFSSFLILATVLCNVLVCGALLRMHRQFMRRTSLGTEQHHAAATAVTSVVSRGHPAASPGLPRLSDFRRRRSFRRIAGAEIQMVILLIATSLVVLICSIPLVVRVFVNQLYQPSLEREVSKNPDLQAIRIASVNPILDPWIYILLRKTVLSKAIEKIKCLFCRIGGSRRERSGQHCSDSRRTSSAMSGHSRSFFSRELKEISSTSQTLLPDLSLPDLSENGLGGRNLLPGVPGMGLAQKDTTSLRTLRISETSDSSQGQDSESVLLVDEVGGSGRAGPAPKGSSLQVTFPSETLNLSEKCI
Experimental: as §1, with “6” for “7”, “baboon” for “cynomolgus macaque”, “baboon EP4” for “cynEP4”
as §2, §3, §4

[3] = target: T2, baboon prostaglandin receptor EP4 (baEP4); assay: Competition binding with 3H-PGE2 on CHO-K1 cells transiently transfected with baboon EP4; conditions: for IC50: baEP4 transfected CHO-K1 whole cells, 3 nM 3H-PGE2, 1 hr on ice, read-out: IC50, displacement of 3H-PGE2 binding
Experimental: Following washing and solubilization of the cells, specific binding was determined by scintillation counting.
(§5) To test the binding and signaling characteristics of this putative ba/cynEP4 receptor, DNA fragments containing the entire open reading frames of each baboon and cynomolgus macaque were separately transiently transfected into CHO—K1 cells.
The day prior to transfection, CHO—K1 cells were plated in 100 mm dishes (Corning, Corning, N.Y.) at 6×10^4 cells/cm^2 in DMEM/F12 (Life Technologies) supplemented with 10% fetal calf serum (FCS; Gemini Bio-Products, Calabasas, Calif.). The next day, each plate of cells was transfected with 15 g of either baboon or cynomolgus macaque EP4-pCR3.1-Uni plasmid DNA using Lipofectamine 2000 reagent (Life Technologies) according to the manufacturer's protocol. Briefly, 45 l of Lipofectamine 2000 reagent was diluted into 1.5 ml of D-MEM/F12 without serum and incubated at room temperature for 5 minutes. During this time, 15 g of either baboon or cynomolgus macaque EP4-pCR3.1-Uni plasmid DNA was diluted into 0.5 ml of D-MEM/F12 without serum. The diluted Lipofectamine 2000 reagent and the DNA were then mixed and incubated an additional 20 minutes at room temperature. 8 ml D-MEM/F12 without serum was then added to each reaction and carefully added to a plate of CHO cell previously rinsed with serum free D-MEM/F12. These cells were then incubated at 37° C. with 5% CO2 for 6 hr at which time 1 ml FCS was added per plate and the incubation continued at 37° C. with 5% CO2 overnight. The following day, the cells were split to either 24-well or 96-well dishes for use in ligand binding and/or secondary signaling analyses.
CHO cells transiently transfected with the baboon EP4 or cynomolgus macaque EP4 receptor were plated at 60,000 cells/well in 24-well tissue-culture dishes (Corning, Corning, N.Y.) and allowed to grow for 48 hours. […] Unbound radioligand was removed by extensive washing, the cells were solubilized with 1% SDS, and the bound ^3H-PGE2 quantitated by scintillation counting.

[4] = target: T1, cynomolgus macaque prostaglandin receptor EP4 (cynEP4); assay: Competition binding with 3H-PGE2 on CHO-K1 cells transiently transfected with cynomolgus macaque EP4; conditions: for IC50: cynEP4 transfected CHO-K1 whole cells, 3 nM 3H-PGE2, 1 hr on ice, read-out: IC50, displacement of 3H-PGE2 binding
Experimental: Each indicated concentration of (▪) PGE2, (♦) EP4SL, (▴) butaprost, or (●) sulprostone was incubated with three wells of a 24-well dish of CHO cells transiently transfected with cynEP4 for 1 hr on ice in the presence of 3 nM ^3H-PGE2. Following washing and solubilization of the cells, specific binding was determined by scintillation counting.
as §5
CHO cells transiently transfected with the baboon EP4 or cynomolgus macaque EP4 receptor were plated at 60,000 cells/well in 24-well tissue-culture dishes (Corning, Corning, N.Y.) and allowed to grow for 48 hours. Whole cell binding reactions (0.2 ml per well) containing 3 nM ^3H-PGE2 plus unlabeled competitor (10^−5 to 10^−10 M) were performed on ice for 1 hr. Unbound radioligand was removed by extensive washing, the cells were solubilized with 1% SDS, and the bound ^3H-PGE2 quantitated by scintillation counting.

T1 sequence (Q95J39 entry or part of it): as the sequence (Q7JGJ7 entry or part of it) above

Compound	EC50 [1] [µM]	increased levels of cAMP, result in words (parental CHO—K1 cells)	EC50 [2] [µM]	IC50 [3] [µM]	IC50 [4] [µM]	binding to the receptor (competition with 3H-PGE2), result in words ([3]; baEP4 transfected CHO-K1 cells, competitor 10^-5 to 10^-10 M)	binding to the receptor (competition with 3H-PGE2), result in words ([4]; cynEP4 transfected CHO-K1 cells, competitor 10^-5 to 10^-10 M)
O=C(O)CCCCCCN1C(=O)CCC1CCC(O)Cc1ccccc1 (stereo not drawn) [EP4SL, 7-[2-(3-hydroxy-4-phenyl-butyl)-5-oxo-pyrrolidin-1-yl]-heptanoic acid]	0.56	not in parental CHO—K1 cells	0.872	0.361	0.3	–	–
CCCCC[C@H](O)/C=C/[C@H]1[C@H](O)CC(=O)[C@@H]1C/C=C\CCCC(=O)O [PGE2, Prostaglandin E2]	0.0089	not in parental CHO—K1 cells	0.0224	0.0026	0.0025	–	–
CCCC1([C@H](O)C/C=C/[C@H]2[C@H](O)CC(=O)[C@@H]2CCCCCCC(=O)OC)CCC1 [butaprost]	–	–	–	–	–	did not bind	did not bind
